Assays:
ECHCG [1] = experiment: A. Herbicidal pre-emergence action on harmful plants (Tables A); format: in vivo, Echinochloa crus-galli; details: visual grading after ca. 3 weeks vs untreated controls, 100% = plants have died off, 0% = as control plants
Outline: (§1)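 Values are visual percent damage relative to untreated controls, scored ca. 3 weeks after the compound was sprayed on the covering soil of sown pots (sandy loam) at rates up to 1280 g/ha, formulated as WP or EC with 0.5% additive.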

LOLRI [2] = experiment: as above; format: in vivo, Lolium rigidum; details: visual grading after ca. 3 weeks vs untreated controls, 100% = plants have died off, 0% = as control plants
Outline: as §1

MATIN [3] = experiment: as above; format: in vivo, Matricaria inodora; details: application rate 1280 g/ha; visual grading after ca. 3 weeks vs untreated controls; 100% = plants have died off, 0% = as control plants
Outline: as §1

SETVI [4] = experiment: as above; format: in vivo, Setaria viridis; details: visual grading after ca. 3 weeks vs untreated controls, 100% = plants have died off, 0% = as control plants
Outline: as §1

STEME = experiment: as above; format: in vivo, Stellaria media; details: visual grading after ca. 3 weeks vs untreated controls, 100% = plants have died off, 0% = as control plants
Outline: as §1

POAAN [5] = experiment: as above; format: in vivo, Poa annua
Outline: as §1

ALOMY [6] = experiment: as above; format: in vivo, Alopecurus myosuroides; details: application rate 1280 g/ha; Table A9a
Outline: as §1

DIGSA [7] = experiment: as above; format: in vivo, Digitaria sanguinalis
Outline: as §1

ALOMY [8] = experiment: C. Herbicidal pre-emergence action, weed and crop plants (Tables C); format: in vivo, Alopecurus myosuroides; details: application rate 320 g/ha; Table C2a
Description: (§2) Seeds of mono- and dicotyledonous weed plants and crop plants were sown, in plastic or organic planting pots, in sandy loam and covered with soil. The compounds according to the invention, formulated in the form of wettable powders (WP) or as emulsifiable concentrates (EC), were applied to the surface of the covering soil as aqueous suspension or emulsion, with the addition of 0.5% of an additive, at an application rate of 6001 of water/ha (converted). Following treatment, the pots were placed in a greenhouse and kept under optimum growth conditions for the test plants. The visual grading of the damage to the test plants was carried out after ca. 3 weeks in comparison to untreated controls (herbicidal effect in percent (%): 100% effect = plants have died off, 0% effect = as control plants). Tables C1 to C12 below show the effects of selected compounds of the general formula (I) according to table 1 on various harmful plants and an application rate corresponding to 320 g/ha or below obtained by the experimental procedure mentioned above. Table C1: pre-emergence activity at 320g/ha against KCHSC in %

DIGSA [9] = experiment: as above; format: in vivo, Digitaria sanguinalis; details: application rate 320 g/ha; Table C5a
Description: as §2

ECHCG [10] = experiment: as above; format: in vivo, Echinochloa crus-galli; details: application rate 320 g/ha; Table C6a
Description: as §2

MATIN [11] = experiment: as above; format: in vivo, Matricaria inodora; details: application rate 320 g/ha; Table C8
Description: as §2

VIOTR = experiment: as above; format: in vivo, Viola tricolor; details: application rate 320 g/ha; Table C12a
Description: as §2

ZEAMX [12] = experiment: D. Pre-emergence effects on crop plants (Tables D); format: in vivo, Zea mays; details: crop plant; application rate 80 g/ha; Table D1b
Description: (§3) Seeds of mono- and dicotyledonous weed plants and crop plants were sown, in plastic or organic planting pots, in sandy loam and covered with soil. The compounds according to the invention, formulated in the form of wettable powders (WP) or as emulsifiable concentrates (EC), were applied to the surface of the covering soil as aqueous suspension or emulsion, with the addition of 0.5% of an additive, at an application rate of 6001 of water/ha (converted).
(§4) Following treatment, the pots were placed in a greenhouse and kept under optimum growth conditions for the test plants. The visual grading of the damage to the test plants was carried out after ca. 3 weeks in comparison to untreated controls (herbicidal effect in percent (%): 100% effect = plants have died off, 0% effect = as control plants).
(§5) Tables D1 to D5 below show the effects of various compounds of the general formula (I) according to Table 1 on various crop plants and an application rate corresponding to 320 g/ha or below obtained by the experimental procedure mentioned above in Biological Examples, Section C. Table D1a: pre-emergence activity at 320g/ha against ZEAMX in %

GLXMA [13] = experiment: D. Pre-emergence effects on crop plants (Tables D); format: in vivo, Glycine max; details: crop plant; application rate 80 g/ha; Table D4b
Description: as §3, §4, §5

BRSNW [14] = experiment: D. Pre-emergence effects on crop plants (Tables D); format: in vivo, Brassica napus; details: application rate 80 g/ha, crop plant
Description: as §3, §4, §5

ZEAMX [15] = experiment: F. Post-emergence effects on crop plants (Tables F); format: in vivo, Zea mays; details: crop plant
Description: (§6) Seeds of mono- and dicotyledonous weed plants and crop plants were sown, in plastic or organic planting pots, in sandy loam, covered with soil and grown in a greenhouse under controlled growth conditions. 2 to 3 weeks after sowing, the test plants were sprayed in the single-leaf stage. The compounds according to the invention, formulated in form of wettable powders (WP) or as emulsifiable concentrates (EC), were sprayed onto the green plant parts as aqueous suspension or emulsion, with the addition of 0.5% of an additive, at an application rate of 6001 of water/ha (converted). The test plants were placed in the greenhouse for ca. 3 weeks under optimum growth conditions, and then the effect of the preparations was assessed visually in comparison with untreated controls (herbicidal effect in percent (%): 100% effect = plants have died off, 0% effect = as control plants). Tables F1 to F5 below show the effects of selected compounds of the general formula (I) according to table 1 on various crop plants and an application rate corresponding to 320 g/ha or below obtained by the experimental procedure mentioned above. Table […]: post-emergence activity at 320g/ha against ZEAMX in %

TRZAS = experiment: as above; format: in vivo, Triticum aestivum; details: application rate 80 g/ha, crop plant
Description: as §6

GLXMA [16] = experiment: as above; format: in vivo, Glycine max; details: application rate 320 g/ha, crop plant
Description: as §6

BRSNW [17] = experiment: as above; format: in vivo, Brassica napus; details: application rate 80 g/ha, crop plant
Description: as §6

LOLRI [18] = experiment: B. Herbicidal post-emergence action on harmful plants (Tables B); format: in vivo, Lolium rigidum; details: application rate 1280 g/ha; Table B3
Description: Seeds of mono- and dicotyledonous weed plants were placed in plastic pots in sandy loam soil (doubly sown with in each case one species of mono- or dicotyledonous weed plants per pot), covered with soil and cultivated in a greenhouse under controlled growth conditions. 2 to 3 weeks after sowing, the test plants were treated at the one-leaf stage. The compounds of the invention, formulated in the form of wettable powders (WP) or as emulsion concentrates (EC), were applied onto the green parts of the plants as aqueous suspension or emulsion with addition of 0.5% additive at a water application rate of 600 liters per hectare (converted). After the test plants had been kept in the greenhouse under optimum growth conditions for about 3 weeks, the activity of the preparations was rated visually in comparison to untreated controls. For example, 100% activity = the plants have died, 0% activity = like control plants. Tables B1 to B12, below, show the effects of selected compounds of the general formula (I) according to table 1 on various harmful plants and an application rate corresponding to 1280 g/ha or below obtained by the experimental procedure mentioned above. Table B1a: post-emergence activity at 1280g/ha against ABUTH in %

SETVI [19] = experiment: as above; format: in vivo, Setaria viridis; details: application rate 1280 g/ha; Table B5
Outline: (§7)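 Greenhouse weeds grown in sandy loam were sprayed post-emergence at the one-leaf stage, 2-3 weeks after sowing. Compounds were applied as WP or EC in water with 0.5% additive at 600 L/ha, at 1280 g/ha or below. Visual damage was rated after about 3 weeks versus untreated plants (0-100%).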

POAAN [20] = experiment: as above; format: in vivo, Poa annua; details: application rate 1280 g/ha; Table B7a
Outline: as §7

[21] = application rate 80 g/ha, Table A7c
[22] = application rate 320 g/ha, Table A7b
[23] = application rate 1280 g/ha, visual grading after ca. 3 weeks vs untreated controls, 100% = plants have died off, 0% = as control plants
[24] = application rate 1280 g/ha, Table A12a

Row | Compound | pre-emergence activity against ECHCG (ECHCG [1]; application rate 320 g/ha) | pre-emergence activity against ECHCG (ECHCG [1]; application rate 1280 g/ha) | pre-emergence activity against LOLRI (LOLRI [2]; application rate 320 g/ha) | pre-emergence activity against LOLRI (LOLRI [2]; application rate 1280 g/ha) | pre-emergence activity against MATIN (MATIN [3]) | pre-emergence activity against SETVI (SETVI [4]; application rate 1280 g/ha) | pre-emergence activity against STEME (STEME; application rate 1280 g/ha) | pre-emergence activity against POAAN (POAAN [5]; [21]) | pre-emergence activity against POAAN (POAAN [5]; [22]) | pre-emergence activity against POAAN (POAAN [5]; [23]) | pre-emergence activity against DIGSA (DIGSA [7]; [24]) | also measured
1 | Cn1cc(C(=O)N2CCCC2Cc2ccccc2F)c(COCC(F)F)n1 (racemic) [Example I-044] | 90% | 100% | 90% | 90% | 90% | 90% | 90% | 90% | 100% | 100% | 100% | pre-emergence activity against ALOMY (ALOMY [6]): 90%; pre-emergence activity against DIGSA (DIGSA [7]; application rate 320 g/ha, Table A12b): 90%; pre-emergence activity against ALOMY (ALOMY [8]): 90%; pre-emergence activity against DIGSA (DIGSA [9]): 90%; pre-emergence activity against ECHCG (ECHCG [10]): 90%; pre-emergence activity against MATIN (MATIN [11]): 90%; pre-emergence activity against VIOTR (VIOTR): 90%; pre-emergence activity against ZEAMX (ZEAMX [12]): 0%; pre-emergence activity against GLXMA (GLXMA [13]): 0%; pre-emergence activity against BRSNW in % (BRSNW [14]): 0%; post-emergence activity against ZEAMX in % (ZEAMX [15]; application rate 80 g/ha): 0%; post-emergence activity against ZEAMX in % (ZEAMX [15]; application rate 320 g/ha): 0%; post-emergence activity against TRZAS in % (TRZAS): 0%; post-emergence activity against GLXMA in % (GLXMA [16]): 0%; post-emergence activity against BRSNW in % (BRSNW [17]): 0%
2 | COCc1c(C(=O)N2CCCC2Cc2c(F)cccc2F)cnn1C (racemic) [Example I-124] | 90% | 100% | 90% | 100% | 100% | 90% | 90% | 90% | 100% | 100% | 90% | pre-emergence activity against SETVI (SETVI [4]; application rate 320 g/ha): 90%; pre-emergence activity against STEME (STEME; application rate 320 g/ha): 90%; post-emergence activity against LOLRI (LOLRI [18]): 90%; post-emergence activity against SETVI (SETVI [19]): 90%; post-emergence activity against POAAN (POAAN [20]): 90%

— patent EP4417602A1, “SUBSTITUTED PYRAZOLE CARBOXAMIDES, SALTS THEREOF AND THEIR USE AS HERBICIDALLY ACTIVE SUBSTANCES” (Bayer AG, priority 2023, dated 2024)
